{"source": "the supplement of paper PMC10307832", "assay_in_all_cases": "relative viability (nuclei count vs DMSO), 5 days (fraction); higher = more cells survive", "key": {"[1]": {"compound": "C#Cc1cccc(Nc2ncnc3cc(OC)c(OCCCCCCC(=O)NO)cc23)c1 [CUDC-101] + CC(=O)c1c(C)c2cnc(Nc3ccc(N4CCNCC4)cn3)nc2n(C2CCCC2)c1=O [Palbociclib] (partner 0.5 µM)", "in_short": "(§1)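 A single step with final 0.05% Triton X-100, 1% formaldehyde and 1 ug/ml Hoechst fixed the cells and stained nuclei 5 days after treatment. Lung cancer cell lines in 1536-well plates had been treated by pin tool the day after seeding with one drug alone or a fixed anchor-drug dose plus five library-drug doses (not always all listed) in √10 steps, and nuclei were counted on 4× images. Relative viability is the ratio of nuclei in treated wells to nuclei in vehicle wells, taken as the median of duplicate plates.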"}, "[2]": {"compound": "C#Cc1cccc(Nc2ncnc3cc(OC)c(OCCCCCCC(=O)NO)cc23)c1 [CUDC-101] + C[C@@H](Oc1cc(-c2cnn(C3CCNCC3)c2)cnc1N)c1c(Cl)ccc(F)c1Cl [Crizotinib] (partner 1 µM)", "in_short": "as §1"}, "[3]": {"compound": "C#Cc1cccc(Nc2ncnc3cc(OC)c(OCCCCCCC(=O)NO)cc23)c1 [CUDC-101] + Cc1nc(Nc2ncc(C(=O)Nc3c(C)cccc3Cl)s2)cc(N2CCN(CCO)CC2)n1 [Dasatinib] (partner 0.075 µM)", "in_short": "as §1"}, "[4]": {"compound": "COc1cc2/c(=N/c3ccc(Br)cc3F)nc[nH]c2cc1OCC1CCN(C)CC1 [Vandetanib] + O=C(CCCCCCC(=O)Nc1ccccc1)NO [Vorinostat] (partner 1 µM)", "in_short": "as §1"}}, "data": [{"cell line": "UMC-11", "values": [{"measurement": "relative viability", "setting": "[1]; first compound 0.01 µM", "result": 0.346}, {"measurement": "relative viability", "setting": "[1]; first compound 0.03162 µM", "result": 0.375}, {"measurement": "relative viability", "setting": "[1]; first compound 0.1 µM", "result": 0.323}, {"measurement": "relative viability", "setting": "[1]; first compound 0.3162 µM", "result": 0.277}, {"measurement": "relative viability", "setting": "[1]; first compound 1 µM", "result": 0.228}, {"measurement": "relative viability", "setting": "[2]; first compound 0.01 µM", "result": 0.67}, {"measurement": "relative viability", "setting": "[2]; first compound 0.03162 µM", "result": 0.577}, {"measurement": "relative viability", "setting": "[2]; first compound 0.1 µM", "result": 0.404}, {"measurement": "relative viability", "setting": "[2]; first compound 0.3162 µM", "result": 0.215}, {"measurement": "relative viability", "setting": "[2]; first compound 1 µM", "result": 0.136}, {"measurement": "relative viability", "setting": "[3]; first compound 0.01 µM", "result": 0.436}, {"measurement": "relative viability", "setting": "[3]; first compound 0.03162 µM", "result": 0.406}, {"measurement": "relative viability", "setting": "[3]; first compound 0.1 µM", "result": 0.35}, {"measurement": "relative viability", "setting": "[3]; first compound 0.3162 µM", "result": 0.227}, {"measurement": "relative viability", "setting": "[3]; first compound 1 µM", "result": 0.0988}, {"measurement": "relative viability", "setting": "[4]; first compound 0.02 µM", "result": 0.43}, {"measurement": "relative viability", "setting": "[4]; first compound 0.06325 µM", "result": 0.373}, {"measurement": "relative viability", "setting": "[4]; first compound 0.2 µM", "result": 0.399}, {"measurement": "relative viability", "setting": "[4]; first compound 0.6325 µM", "result": 0.342}, {"measurement": "relative viability", "setting": "[4]; first compound 2 µM", "result": 0.364}]}]}
